Results from paper PMC5218480 (PLoS ONE, 2017).

Tested on: MV-4-11 cells
Assay: Gene expression microarray analysis (Affymetrix PrimeView) and GSEA
Type: cell-based, human
Parameters: RFU PODN (11730768_x_at) / Fold change /veh PODN (11730768_x_at) / RFU LINC00158 (11744669_a_at) / Fold change /veh LINC00158 (11744669_a_at) / RFU DUSP10 (11751237_a_at) / Fold change /veh DUSP10 (11751237_a_at) / RFU ID3 (11757404_x_at) / Fold change /veh ID3 (11757404_x_at) / RFU PLEKHG5 (11737974_s_at) / Fold change /veh PLEKHG5 (11737974_s_at) / RFU LRRC4B (11730491_at) / Fold change /veh LRRC4B (11730491_at) / RFU GIMAP4 (11747438_a_at) / Fold change /veh GIMAP4 (11747438_a_at) / RFU KRT8 (11758183_x_at) / Fold change /veh KRT8 (11758183_x_at) / RFU CNN1 (11734310_a_at) / Fold change /veh CNN1 (11734310_a_at) / RFU VPS37D (11726825_at) / Fold change /veh VPS37D (11726825_at) / RFU C10orf10 (11716522_x_at) / Fold change /veh C10orf10 (11716522_x_at) / RFU KIR2DL2 /// KIR2DL4 /// KIR2DL5A /// KIR2DL5B /// KIR2DS1 /// KIR2DS2 /// KIR2DS3 /// KIR2DS4 /// KIR3DL3 /// KIR3DL3 /// KIR3DS1 (11738374_at) / Fold change /veh KIR2DL2 /// KIR2DL4 /// KIR2DL5A /// KIR2DL5B /// KIR2DS1 /// KIR2DS2 /// KIR2DS3 /// KIR2DS4 /// KIR3DL3 /// KIR3DL3 /// KIR3DS1 (11738374_at) / RFU C1QL1 (11718748_at) / Fold change /veh C1QL1 (11718748_at) / RFU TMPRSS4 (11747572_a_at) / Fold change /veh TMPRSS4 (11747572_a_at) / RFU HAMP (11756126_x_at) / Fold change /veh HAMP (11756126_x_at) / RFU RNFT2 (11725882_a_at) / Fold change /veh RNFT2 (11725882_a_at) / RFU NR4A2 (11747474_a_at) / Fold change /veh NR4A2 (11747474_a_at) / RFU ABCC12 (11746883_a_at) / Fold change /veh ABCC12 (11746883_a_at) / RFU TMEM136 (11760407_x_at) / Fold change /veh TMEM136 (11760407_x_at) / RFU CLDN22 /// WWC2 (11732394_at) / Fold change /veh CLDN22 /// WWC2 (11732394_at) / RFU HLA-DPB1 (11760878_x_at) / Fold change /veh HLA-DPB1 (11760878_x_at) / RFU SPINT1 (11716480_a_at) / Fold change /veh SPINT1 (11716480_a_at) / RFU GAP43 (11754022_s_at) / Fold change /veh GAP43 (11754022_s_at) / RFU A4GNT (11735810_at) / Fold change /veh A4GNT (11735810_at) / RFU PRB3 (11715151_x_at) / Fold change /veh PRB3 (11715151_x_at) / RFU TUBB4B (11761932_at) / Fold change /veh TUBB4B (11761932_at) / RFU CAPN14 (11732068_a_at) / Fold change /veh CAPN14 (11732068_a_at) / RFU TMCC2 (11721928_a_at) / Fold change /veh TMCC2 (11721928_a_at) / RFU IRGQ (11745062_a_at) / Fold change /veh IRGQ (11745062_a_at) / RFU FAM174B (11720279_a_at) / Fold change /veh FAM174B (11720279_a_at) / RFU TMPRSS4 (11748680_a_at) / Fold change /veh TMPRSS4 (11748680_a_at) / RFU FAM212B (11763350_a_at) / Fold change /veh FAM212B (11763350_a_at) / RFU PLEKHG5 (11743358_a_at) / Fold change /veh PLEKHG5 (11743358_a_at) / RFU ZSCAN30 (11745921_a_at) / Fold change /veh ZSCAN30 (11745921_a_at) / RFU CMKLR1 (11741424_a_at) / Fold change /veh CMKLR1 (11741424_a_at) / RFU LOC101060620 /// MAPK8IP1 (11723275_at) / Fold change /veh LOC101060620 /// MAPK8IP1 (11723275_at) / RFU SPTSSB (11747773_x_at) / Fold change /veh SPTSSB (11747773_x_at) / RFU PRSS12 (11739890_at) / Fold change /veh PRSS12 (11739890_at) / RFU BIN1 (11741810_x_at) / Fold change /veh BIN1 (11741810_x_at) / RFU WNT11 (11732464_a_at) / Fold change /veh WNT11 (11732464_a_at) / RFU C10orf10 (11716521_a_at) / Fold change /veh C10orf10 (11716521_a_at) / RFU C5orf56 (11738089_at) / Fold change /veh C5orf56 (11738089_at) / RFU CYB561 (11721691_x_at) / Fold change /veh CYB561 (11721691_x_at) / RFU ANKRD19P (11752326_a_at) / Fold change /veh ANKRD19P (11752326_a_at) / RFU OR2T12 /// OR2T33 /// OR2T8 (11738714_s_at) / Fold change /veh OR2T12 /// OR2T33 /// OR2T8 (11738714_s_at) / RFU VCAN (11748164_a_at) / Fold change /veh VCAN (11748164_a_at) / RFU JSRP1 (11732532_at) / Fold change /veh JSRP1 (11732532_at) / RFU KRTAP10-11 (11738290_x_at) / Fold change /veh KRTAP10-11 (11738290_x_at) / RFU MYO3A (11730013_a_at) / Fold change /veh MYO3A (11730013_a_at) / RFU EBF3 (11725865_a_at) / Fold change /veh EBF3 (11725865_a_at) / RFU CAMK2N1 (11719241_x_at) / Fold change /veh CAMK2N1 (11719241_x_at) / RFU C5orf56 (11738088_a_at) / Fold change /veh C5orf56 (11738088_a_at) / RFU OLFML3 (11715873_a_at) / Fold change /veh OLFML3 (11715873_a_at) / RFU LOC100653217 /// NTM (11731650_a_at) / Fold change /veh LOC100653217 /// NTM (11731650_a_at) / RFU MAPK11 (11762145_a_at) / Fold change /veh MAPK11 (11762145_a_at) / RFU FIZ1 (11724087_x_at) / Fold change /veh FIZ1 (11724087_x_at) / RFU OASL (11726364_x_at) / Fold change /veh OASL (11726364_x_at) / RFU SOX15 (11748057_x_at) / Fold change /veh SOX15 (11748057_x_at) / RFU CD79A (11719716_a_at) / Fold change /veh CD79A (11719716_a_at) / RFU HIST1H1D (11736915_at) / Fold change /veh HIST1H1D (11736915_at) / RFU CASKIN2 (11723855_a_at) / Fold change /veh CASKIN2 (11723855_a_at) / RFU LOC730098 (11760151_x_at) / Fold change /veh LOC730098 (11760151_x_at) / RFU OR4N2 (11742367_at) / Fold change /veh OR4N2 (11742367_at) / RFU PRRT2 (11749266_a_at) / Fold change /veh PRRT2 (11749266_a_at) / RFU SNX32 (11753110_a_at) / Fold change /veh SNX32 (11753110_a_at) / RFU CDHR5 (11726645_a_at) / Fold change /veh CDHR5 (11726645_a_at) / RFU RCAN1 (11760418_a_at) / Fold change /veh RCAN1 (11760418_a_at) / RFU FAM167A (11723789_a_at) / Fold change /veh FAM167A (11723789_a_at) / RFU FAM26E (11764081_at) / Fold change /veh FAM26E (11764081_at) / RFU ISYNA1 (11749810_s_at) / Fold change /veh ISYNA1 (11749810_s_at) / RFU ACY1 (11761880_at) / Fold change /veh ACY1 (11761880_at) / RFU 11764098_at / Fold change /veh 11764098_at / RFU SAMD14 (11745864_x_at) / Fold change /veh SAMD14 (11745864_x_at) / RFU NPB (11741838_a_at) / Fold change /veh NPB (11741838_a_at) / RFU TMPRSS6 (11731388_a_at) / Fold change /veh TMPRSS6 (11731388_a_at) / RFU KRTAP10-2 (11738614_at) / Fold change /veh KRTAP10-2 (11738614_at) / RFU ARHGAP8 /// PRR5-ARHGAP8 (11727945_x_at) / Fold change /veh ARHGAP8 /// PRR5-ARHGAP8 (11727945_x_at) / RFU KRTAP5-7 /// NADSYN1 (11734609_at) / Fold change /veh KRTAP5-7 /// NADSYN1 (11734609_at) / RFU RASL12 (11751679_a_at) / Fold change /veh RASL12 (11751679_a_at) / RFU CDKN2B (11736163_a_at) / Fold change /veh CDKN2B (11736163_a_at) / RFU PRF1 (11729649_at) / Fold change /veh PRF1 (11729649_at) / RFU, ZNF638 /// ZNF638-IT1 / Fold change vs veh, ZNF638 /// ZNF638-IT1 / RFU, PANK3 / Fold change vs veh, PANK3 / RFU, SH3YL1 / Fold change vs veh, SH3YL1 / RFU, ZEB2 / Fold change vs veh, ZEB2 / RFU, NRIP1 / Fold change vs veh, NRIP1 / RFU, PTTG1IP / Fold change vs veh, PTTG1IP / RFU, CAPN2 / Fold change vs veh, CAPN2 / RFU, MED14 / Fold change vs veh, MED14 / RFU, SNORA58 / Fold change vs veh, SNORA58 / RFU, C1orf63 / Fold change vs veh, C1orf63 / RFU, LRRFIP1 / Fold change vs veh, LRRFIP1 / RFU, NDUFAF7 / Fold change vs veh, NDUFAF7 / RFU, SLC12A2 / Fold change vs veh, SLC12A2 / RFU, IBTK / Fold change vs veh, IBTK / RFU, ESF1 / Fold change vs veh, ESF1 / Fold change vs veh, TMEM50B / RFU, TAOK1 / Fold change vs veh, TAOK1 / RFU, ACBD3 / Fold change vs veh, ACBD3 / RFU, TMA16 / Fold change vs veh, TMA16 / RFU, RWDD3 / Fold change vs veh, RWDD3 / RFU, BCAT1 / Fold change vs veh, BCAT1 / RFU, EDEM3 / Fold change vs veh, EDEM3 / RFU, TMEM33 / Fold change vs veh, TMEM33 / RFU, WDR75 / Fold change vs veh, WDR75 / RFU, AHCTF1 / Fold change vs veh, AHCTF1 / RFU, TFRC / Fold change vs veh, TFRC / RFU, ZDHHC17 / Fold change vs veh, ZDHHC17 / RFU, NOM1 / Fold change vs veh, NOM1 / RFU, ARL8B / Fold change vs veh, ARL8B / RFU, ZBTB11 / Fold change vs veh, ZBTB11 / RFU, TAMM41 / Fold change vs veh, TAMM41 / RFU, KIAA1704 /// LOC100996395 / Fold change vs veh, KIAA1704 /// LOC100996395 / RFU, ING1 / Fold change vs veh, ING1 / RFU, TRMT61B / Fold change vs veh, TRMT61B / RFU, FUBP3 / Fold change vs veh, FUBP3 / RFU, TP53 / Fold change vs veh, TP53 / RFU, TNKS2 / Fold change vs veh, TNKS2 / RFU, ZFP14 / Fold change vs veh, ZFP14 / RFU, ACTR2 / Fold change vs veh, ACTR2 / RFU, PPP3R1 / Fold change vs veh, PPP3R1 / RFU, PIK3R1 / Fold change vs veh, PIK3R1 / RFU, HNRNPA1 / Fold change vs veh, HNRNPA1 / RFU, RNF170 / Fold change vs veh, RNF170 / RFU, ZNF28 / Fold change vs veh, ZNF28 / RFU, RNGTT / Fold change vs veh, RNGTT / RFU, OGT / Fold change vs veh, OGT / RFU, BRD1 / Fold change vs veh, BRD1 / RFU, MARS / Fold change vs veh, MARS / RFU, ZNF655 / Fold change vs veh, ZNF655 / RFU, FAHD1 / Fold change vs veh, FAHD1 / RFU, BDP1 / Fold change vs veh, BDP1 / RFU, LRRCC1 / Fold change vs veh, LRRCC1 / RFU, ARID1A / Fold change vs veh, ARID1A / RFU, ZNF146 / Fold change vs veh, ZNF146 / RFU, ZNF330 / Fold change vs veh, ZNF330 / RFU, GPN3 / Fold change vs veh, GPN3 / RFU, C9orf123 / Fold change vs veh, C9orf123 / RFU, N4BP2L2 / Fold change vs veh, N4BP2L2 / RFU, ARFIP1 / Fold change vs veh, ARFIP1 / RFU, FAM179B / Fold change vs veh, FAM179B / RFU, BCL10 / Fold change vs veh, BCL10 / RFU, UHRF1BP1L / Fold change vs veh, UHRF1BP1L / RFU, BET1 / Fold change vs veh, BET1 / RFU, CNOT2 / Fold change vs veh, CNOT2 / RFU, ZNF268 / Fold change vs veh, ZNF268 / Fold change vs veh, ZNF507 / RFU, DGCR2 / Fold change vs veh, DGCR2 / RFU, WDSUB1 / Fold change vs veh, WDSUB1 / Fold change vs veh, HSP90B1 /// MIR3652 / RFU, ADSS / Fold change vs veh, ADSS / RFU, GK / Fold change vs veh, GK / RFU, ZNF148 / Fold change vs veh, ZNF148 / RFU, TAF9 / Fold change vs veh, TAF9 / RFU, SLC1A5 / Fold change vs veh, SLC1A5 / RFU, SLMO2 / Fold change vs veh, SLMO2 / RFU, ABCC4 / Fold change vs veh, ABCC4 / RFU, LOC101060439 /// RAP1B / Fold change vs veh, LOC101060439 /// RAP1B / RFU, RFX7 / Fold change vs veh, RFX7 / RFU, GTPBP10 / Fold change vs veh, GTPBP10 / RFU, CNEP1R1 / Fold change vs veh, CNEP1R1 / RFU, BIVM-ERCC5 /// ERCC5 / Fold change vs veh, BIVM-ERCC5 /// ERCC5 / RFU, ILF3 / Fold change vs veh, ILF3 / RFU 11762660_at / Fold change /veh 11762660_at / RFU VCAN (11757783_s_at) / Fold change /veh VCAN (11757783_s_at) / RFU DDX43 (11728927_at) / Fold change /veh DDX43 (11728927_at) / RFU KRT8 (11758188_x_at) / Fold change /veh KRT8 (11758188_x_at) / RFU NKD1 (11759106_at) / Fold change /veh NKD1 (11759106_at) / RFU SRD5A1 (11742802_a_at) / Fold change /veh SRD5A1 (11742802_a_at) / RFU TPSAB1 /// TPSB2 (11721975_s_at) / Fold change /veh TPSAB1 /// TPSB2 (11721975_s_at) / RFU GSTM3 (11746129_a_at) / Fold change /veh GSTM3 (11746129_a_at) / RFU IL23R (11737362_x_at) / Fold change /veh IL23R (11737362_x_at) / RFU TMEM51 (11727254_a_at) / Fold change /veh TMEM51 (11727254_a_at) / RFU PIWIL2 (11732686_x_at) / Fold change /veh PIWIL2 (11732686_x_at) / RFU ORM1 (11744905_x_at) / Fold change /veh ORM1 (11744905_x_at) / RFU CCDC152 (11743942_at) / Fold change /veh CCDC152 (11743942_at) / RFU ECM1 (11717891_a_at) / Fold change /veh ECM1 (11717891_a_at) / RFU IL23R (11748794_a_at) / Fold change /veh IL23R (11748794_a_at) / RFU TNFAIP8L3 (11732012_x_at) / Fold change /veh TNFAIP8L3 (11732012_x_at) / RFU MBOAT4 (11741988_at) / Fold change /veh MBOAT4 (11741988_at) / RFU 11764193_at / Fold change /veh 11764193_at / RFU TMEM53 (11763286_at) / Fold change /veh TMEM53 (11763286_at) / RFU MAGEB2 (11727129_at) / Fold change /veh MAGEB2 (11727129_at) / RFU TMEM200A (11744735_a_at) / Fold change /veh TMEM200A (11744735_a_at) / RFU CCDC152 (11751479_a_at) / Fold change /veh CCDC152 (11751479_a_at) / RFU FAM211A (11726209_a_at) / Fold change /veh FAM211A (11726209_a_at) / RFU RGS16 (11746705_a_at) / Fold change /veh RGS16 (11746705_a_at) / RFU VCAN (11755009_s_at) / Fold change /veh VCAN (11755009_s_at) / RFU RHOB (11743442_s_at) / Fold change /veh RHOB (11743442_s_at) / RFU RGS16 (11720943_a_at) / Fold change /veh RGS16 (11720943_a_at) / RFU RGS16 (11720944_at) / Fold change /veh RGS16 (11720944_at) / RFU, VPS4B / Fold change vs veh, VPS4B / RFU, CREB1 / Fold change vs veh, CREB1 / RFU, DNAJC13 / Fold change vs veh, DNAJC13 / RFU, GNAQ / Fold change vs veh, GNAQ / RFU, CDK5R1 / Fold change vs veh, CDK5R1 / RFU, ZRANB3 / Fold change vs veh, ZRANB3 / RFU, CUL4A / Fold change vs veh, CUL4A / RFU, CCNY / Fold change vs veh, CCNY / RFU, UFL1 / Fold change vs veh, UFL1 / RFU, COG3 / Fold change vs veh, COG3 / RFU, DIAPH2 / Fold change vs veh, DIAPH2 / RFU, SKA2 / Fold change vs veh, SKA2 / RFU, AFF3 / Fold change vs veh, AFF3 / RFU, LMF1 / Fold change vs veh, LMF1 / RFU, IPO11 / Fold change vs veh, IPO11 / RFU, DFFB / Fold change vs veh, DFFB / RFU, FOXP1 / Fold change vs veh, FOXP1 / RFU, CARD8 / Fold change vs veh, CARD8 / RFU, STRN3 / Fold change vs veh, STRN3 / RFU, ADK / Fold change vs veh, ADK / RFU, RASSF2 / Fold change vs veh, RASSF2 / RFU, WIPF1 / Fold change vs veh, WIPF1 / RFU, LARP1B / Fold change vs veh, LARP1B / RFU, RASA1 / Fold change vs veh, RASA1 / RFU, RB1 / Fold change vs veh, RB1 / RFU, PPFIA1 / Fold change vs veh, PPFIA1 / RFU, MAT2A / Fold change vs veh, MAT2A / RFU, CCT5 / Fold change vs veh, CCT5 / RFU, WDR92 / Fold change vs veh, WDR92 / RFU, CUX1 / Fold change vs veh, CUX1 / RFU, TTC7A / Fold change vs veh, TTC7A / RFU, TMEM135 / Fold change vs veh, TMEM135 / RFU, DEPTOR / Fold change vs veh, DEPTOR / RFU, CPM / Fold change vs veh, CPM / RFU, DNAJB6 / Fold change vs veh, DNAJB6 / RFU, CACNA2D3 / Fold change vs veh, CACNA2D3 / RFU, DTX4 / Fold change vs veh, DTX4 / RFU, TFCP2 / Fold change vs veh, TFCP2 / RFU, GMCL1 /// GMCL1P1 / Fold change vs veh, GMCL1 /// GMCL1P1 / RFU, AEBP2 / Fold change vs veh, AEBP2 / RFU, SNHG1 /// SNORD22 /// SNORD25 /// SNORD26 /// SNORD27 /// SNORD28 /// SNORD29 /// SNORD31 / Fold change vs veh, SNHG1 /// SNORD22 /// SNORD25 /// SNORD26 /// SNORD27 /// SNORD28 /// SNORD29 /// SNORD31 / Fold change (Aza/veh), C12orf56 (ProbeSet 11735607_a_at) / Fold change (ACY-1035/veh), C12orf56 (ProbeSet 11735607_a_at) / Fold change (Aza/veh), FGFR1OP (ProbeSet 11751329_s_at) / Fold change (ACY-1035/veh), FGFR1OP (ProbeSet 11751329_s_at) / Fold change (Aza/veh), VPS36 (ProbeSet 11739960_a_at) / Fold change (ACY-1035/veh), VPS36 (ProbeSet 11739960_a_at) / RFU SYPL1 (11715823_x_at) / Fold change /veh SYPL1 (11715823_x_at) / RFU IGFBP7 (11715501_s_at) / Fold change /veh IGFBP7 (11715501_s_at) / RFU REEP3 (11722064_at) / Fold change /veh REEP3 (11722064_at) / RFU IGLL1 (11728026_x_at) / Fold change /veh IGLL1 (11728026_x_at): dose or concentration left out as unconfirmed
Conditions: ProbeSet 11764057_s_at; LIST B

With Nc1ccc(-c2cccs2)cc1NC(=O)c1ccc2c(c1)cc(C1CC1)n2CCN1CCOCC1 [ACY-1035] the “Fold change vs veh, C1orf63” value was 0.95.
